From publication PMC5400565, “Real-time near-infrared fluorescence imaging using cRGD-ZW800-1 for intraoperative visualization of multiple cancer types” (Oncotarget, 2017)

Legend:
[1] = biological target: T1, Muscarinic M1 (Homo sapiens, UniProt P11229); test: biochemical; assay type: binding
T1 construct: Eurofins Cerep SA (contract screening)

[2] = biological target: T2, 5-HT transporter (Homo sapiens, UniProt P31645); test: Off-target screening (Eurofins Cerep), 5-HT transporter; assay type: binding
T2 construct: Eurofins Cerep SA (contract screen)

[3] = biological target: T3, 5-hydroxytryptamine (serotonin) receptor 2B (5-HT2B) (Homo sapiens, UniProt P41595); test: Off-target screening (Eurofins Cerep), 5-HT2B; assay type: binding
T3 construct: Eurofins Cerep SA (contract screening)
Source text: (§1) Off-target interactions are binding of tracers to other components on the cell surface than the actual target site. These non-specific interactions are often of low affinity and easily missed, but can have significant effects. We outsourced the screening for in vitro for off-target interactions of cRGD-ZW800-1 to Eurofins Cerep SA, Le bois l’Evêque, France. They assessed the percentage of inhibition of a reference compound in 44 selected targets, including G protein-coupled receptors (GPCRs), transporters, ion channels, nuclear receptors, kinases and other non-kinase enzymes. These targets were recommended by four major pharmaceutical companies. The complete list is included in Supplementary Table 1 of the Supplementary Data. Each assay was performed twice using 10 μM cRGD-ZW800-1 and a reference compound. Inhibition higher than 50% was considered to represent a significant effect of cRGD-ZW800-1. Results showing between 20% and 50% were considered weak to moderate effects, while lower than 20% was not considered significant and mostly attributable to variability of the signal around the control level.

[4] = test system: Na+ channel (site 2); test: Off-target screening (Eurofins Cerep), Na+ channel; assay type: binding
Source text: as §1

[5] = test system: HT-29 cells; test: Binding assay of cRGD-ZW800-1 on cells; assay type: cell-based, human
[6] = biological target: T4, Norepinephrine transporter (Homo sapiens, UniProt P23975); test: Off-target screening (Eurofins Cerep), norepinephrine transporter; assay type: binding
T4 construct: Eurofins Cerep SA (contract screen)

[7] = biological target: T5, Histamine H2 (Homo sapiens, UniProt P25021); test: Off-target screening (Eurofins Cerep), H2; assay type: binding
T5 construct: Eurofins Cerep SA (contract screening)

[8] = test system: orthotopic HT-29 colon tumors; test: In vivo competition, orthotopic HT-29 model; set-up: species or system mice
Method: All animals were imaged using a Pearl® imager (LI-COR, Lincoln, NE) and an original FLARE® prototype. Animals with HT-29 tumors were imaged at 4 and 24 h post injection; animals with BxPC-3 and OSC-19 tumors at 4 h only. Animals with MCF-7 tumors were imaged at 0.5, 1, 2, 4, 6, 8, 24 and 48 h post injection. The specific and control images were normalized and regions of interest (ROIs) were selected using associated software. TBRs were calculated by dividing the tumor signal by the background signal. Based on our experience a TBR ≥ 2 is sufficient to discriminate between tumor and surrounding tissue.
The binding specificity of cRGD-ZW800-1 was explored in a competition experiment using an excess of unlabeled cRGD (200-fold excess) co-injected with a standard dose of 10 nmol cRGD-ZW800-1 (n = 4). Simultaneously, mice (n = 3) were injected with 10 nmol cRGD-ZW800-1 as positive control. All mice had orthotopic HT-29 colon tumors. Images were acquired at 4 and 24 h post-injection after which animals were sacrificed and organs were resected and scanned with Pearl®.

[9] = biological target: T6, Opioid µ (MOP) (Homo sapiens, UniProt P35372); test: Off-target screening (Eurofins Cerep), µ (MOP); assay type: binding
T6 construct: Eurofins Cerep SA (contract screening)

[10] = biological target: T7, Muscarinic M2 (Homo sapiens, UniProt P08172); test: Off-target screening (Eurofins Cerep), M2; assay type: binding
T7 construct: Eurofins Cerep SA (contract screening)

[11] = test system: OSC-19 oral tumors; test: NIR fluorescence imaging, OSC-19 oral tumors; assay type: in vivo, mice; conditions: orthotopic OSC-19 tongue model; 10 nmol; 4 h; Pearl; n = 2; mean ± SD
Method: To induce subcutaneous tumors, colorectal cancer cells (HT-29) were injected at 4 sites on the back (500,000 cells per spot). Subsequently, these colorectal tumor cells were transplanted on the colon of other mice, as described by Tseng et al.. Approximately 500,000 pancreatic tumor cells (BxPC-3) were injected into the pancreas, as previously described by Kim et al.. Approximately 40,000 oral tumor cells (OSC-19) were injected in the tongue, as previously described by van Driel et al.. Approximately 500,000 breast tumor cells (MCF-7) were injected in both sides of the mammary fat pad to induce breast cancer tumors.
All animals were imaged using a Pearl® imager (LI-COR, Lincoln, NE) and an original FLARE® prototype. Animals with HT-29 tumors were imaged at 4 and 24 h post injection; animals with BxPC-3 and OSC-19 tumors at 4 h only. Animals with MCF-7 tumors were imaged at 0.5, 1, 2, 4, 6, 8, 24 and 48 h post injection. […] TBRs were calculated by dividing the tumor signal by the background signal. […]
Mice bearing orthotopic OSC-19 tumors (n = 2) were administrated with 10 nmol cRGD-ZW800-1 and imaged at 4 h. […] In vivo TBRs were calculated by dividing the mean fluorescence signals of tumors by the mean of surrounding tissue. Ex vivo organ-to-tumor ratios were calculated by dividing the fluorescence intensity of the organ by that of the tumor.

[12] = biological target: T8, Cannabinoid CB2 (Homo sapiens, UniProt P34972); test: Off-target screening (Eurofins Cerep), CB2; assay type: binding
T8 construct: Eurofins Cerep SA (contract screening)

[13] = biological target: T9, PDE3A (Homo sapiens, UniProt Q14432); test: Off-target screening (Eurofins Cerep), PDE3A; assay type: biochemical
T9 construct: Eurofins Cerep SA (contract screen)

[14] = biological target: T10, Endothelin ETA (Homo sapiens, UniProt P25101); test: Off-target screening (Eurofins Cerep), ETA; assay type: binding
T10 construct: Eurofins Cerep SA (contract screening)

[15] = biological target: T11, cyclooxygenase-2 (COX-2) (Homo sapiens, UniProt P35354); test: Off-target screening (Eurofins Cerep), COX2; assay type: biochemical
T11 construct: Eurofins Cerep SA (contract screen)

[16] = biological target: Glutamate channels NMDA (Rattus norvegicus, UniProt Q00959); test: Off-target screening (Eurofins Cerep), NMDA; assay type: binding
[17] = read-out: % Inhibition of Control Specific Binding
[18] = read-out: % of Control Specific Binding Mean
[19] = 10 μM cRGD-ZW800-1, format H, An, performed twice, read-out: % Inhibition of Control Specific Binding
[20] = 10 μM, mean of 2, read-out: % of Control Specific Binding Mean
[21] = 10 μM cRGD-ZW800-1, format H, Ag, performed twice, read-out: % Inhibition of Control Specific Binding
[22] = 10 μM cRGD-ZW800-1, format H, performed twice, read-out: % Inhibition of Control Specific Binding

T4 sequence (P23975 whole entry): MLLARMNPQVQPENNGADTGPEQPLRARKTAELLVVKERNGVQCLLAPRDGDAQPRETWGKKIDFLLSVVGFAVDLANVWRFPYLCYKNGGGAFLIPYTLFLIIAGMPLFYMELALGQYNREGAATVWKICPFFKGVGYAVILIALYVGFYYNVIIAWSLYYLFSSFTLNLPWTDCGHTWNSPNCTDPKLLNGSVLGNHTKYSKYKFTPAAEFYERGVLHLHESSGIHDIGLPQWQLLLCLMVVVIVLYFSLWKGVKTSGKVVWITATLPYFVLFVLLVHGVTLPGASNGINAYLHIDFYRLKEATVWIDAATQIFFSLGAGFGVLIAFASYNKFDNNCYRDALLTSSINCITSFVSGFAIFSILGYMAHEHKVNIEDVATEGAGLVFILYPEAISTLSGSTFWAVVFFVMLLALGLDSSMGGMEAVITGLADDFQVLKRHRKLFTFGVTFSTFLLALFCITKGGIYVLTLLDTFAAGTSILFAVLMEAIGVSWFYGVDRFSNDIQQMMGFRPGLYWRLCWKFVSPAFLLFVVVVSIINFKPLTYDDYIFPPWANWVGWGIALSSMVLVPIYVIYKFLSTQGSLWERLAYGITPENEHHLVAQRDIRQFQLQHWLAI
T11 sequence (P35354 18-604): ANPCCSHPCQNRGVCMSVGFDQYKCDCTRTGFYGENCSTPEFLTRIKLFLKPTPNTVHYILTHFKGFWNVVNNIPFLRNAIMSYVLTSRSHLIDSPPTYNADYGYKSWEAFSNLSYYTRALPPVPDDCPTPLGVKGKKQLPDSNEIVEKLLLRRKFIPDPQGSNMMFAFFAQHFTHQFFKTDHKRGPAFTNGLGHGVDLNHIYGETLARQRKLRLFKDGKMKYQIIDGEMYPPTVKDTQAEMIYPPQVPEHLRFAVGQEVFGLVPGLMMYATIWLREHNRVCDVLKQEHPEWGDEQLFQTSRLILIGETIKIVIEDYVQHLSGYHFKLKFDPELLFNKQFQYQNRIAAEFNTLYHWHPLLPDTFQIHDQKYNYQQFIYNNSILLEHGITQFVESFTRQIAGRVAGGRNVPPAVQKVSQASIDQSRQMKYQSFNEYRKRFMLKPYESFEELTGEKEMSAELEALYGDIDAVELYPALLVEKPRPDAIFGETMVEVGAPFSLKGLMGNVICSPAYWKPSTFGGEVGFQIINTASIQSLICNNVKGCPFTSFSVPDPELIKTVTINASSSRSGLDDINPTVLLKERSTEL
T10 sequence (P25101 21-427): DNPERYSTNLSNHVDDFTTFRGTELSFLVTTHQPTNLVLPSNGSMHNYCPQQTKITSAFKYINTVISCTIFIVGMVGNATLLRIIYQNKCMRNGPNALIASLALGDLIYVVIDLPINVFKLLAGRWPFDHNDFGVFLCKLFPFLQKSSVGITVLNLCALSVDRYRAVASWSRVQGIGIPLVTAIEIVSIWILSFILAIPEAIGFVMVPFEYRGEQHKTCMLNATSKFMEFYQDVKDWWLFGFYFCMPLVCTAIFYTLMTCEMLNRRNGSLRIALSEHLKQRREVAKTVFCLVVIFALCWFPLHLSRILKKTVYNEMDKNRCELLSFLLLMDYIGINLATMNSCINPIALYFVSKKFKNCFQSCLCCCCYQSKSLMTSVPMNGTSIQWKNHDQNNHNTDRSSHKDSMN
T9 sequence (Q14432 whole entry): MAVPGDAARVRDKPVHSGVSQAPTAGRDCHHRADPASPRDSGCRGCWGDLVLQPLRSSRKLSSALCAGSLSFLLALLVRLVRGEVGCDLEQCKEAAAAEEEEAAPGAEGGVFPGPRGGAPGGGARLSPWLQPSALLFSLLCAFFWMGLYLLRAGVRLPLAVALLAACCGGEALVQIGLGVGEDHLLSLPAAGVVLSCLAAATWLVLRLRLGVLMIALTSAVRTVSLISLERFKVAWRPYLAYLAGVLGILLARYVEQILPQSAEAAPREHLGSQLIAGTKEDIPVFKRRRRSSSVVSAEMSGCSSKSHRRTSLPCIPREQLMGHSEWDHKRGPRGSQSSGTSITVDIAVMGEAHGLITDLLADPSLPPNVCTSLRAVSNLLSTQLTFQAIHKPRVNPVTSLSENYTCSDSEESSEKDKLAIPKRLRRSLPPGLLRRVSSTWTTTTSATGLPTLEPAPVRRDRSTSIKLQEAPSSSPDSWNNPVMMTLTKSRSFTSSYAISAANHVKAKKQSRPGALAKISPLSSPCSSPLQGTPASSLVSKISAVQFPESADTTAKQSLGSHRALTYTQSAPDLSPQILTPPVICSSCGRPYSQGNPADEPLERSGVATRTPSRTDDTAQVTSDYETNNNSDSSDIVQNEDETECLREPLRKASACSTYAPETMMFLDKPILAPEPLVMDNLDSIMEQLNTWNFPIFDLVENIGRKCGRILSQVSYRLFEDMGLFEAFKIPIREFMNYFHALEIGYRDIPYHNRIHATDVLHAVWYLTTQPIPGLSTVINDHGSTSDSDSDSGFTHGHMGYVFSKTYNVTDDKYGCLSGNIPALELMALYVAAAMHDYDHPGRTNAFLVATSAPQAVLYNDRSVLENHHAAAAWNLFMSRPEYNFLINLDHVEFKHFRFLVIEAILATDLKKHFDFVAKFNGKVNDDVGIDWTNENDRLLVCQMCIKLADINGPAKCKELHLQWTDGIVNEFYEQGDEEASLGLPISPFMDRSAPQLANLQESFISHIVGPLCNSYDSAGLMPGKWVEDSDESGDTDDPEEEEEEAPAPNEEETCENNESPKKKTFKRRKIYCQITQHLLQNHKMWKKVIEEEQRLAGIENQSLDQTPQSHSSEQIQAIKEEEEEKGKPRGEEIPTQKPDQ
Chain of Glutamate channels NMDA (Q00959 23-1464, other chains not shown): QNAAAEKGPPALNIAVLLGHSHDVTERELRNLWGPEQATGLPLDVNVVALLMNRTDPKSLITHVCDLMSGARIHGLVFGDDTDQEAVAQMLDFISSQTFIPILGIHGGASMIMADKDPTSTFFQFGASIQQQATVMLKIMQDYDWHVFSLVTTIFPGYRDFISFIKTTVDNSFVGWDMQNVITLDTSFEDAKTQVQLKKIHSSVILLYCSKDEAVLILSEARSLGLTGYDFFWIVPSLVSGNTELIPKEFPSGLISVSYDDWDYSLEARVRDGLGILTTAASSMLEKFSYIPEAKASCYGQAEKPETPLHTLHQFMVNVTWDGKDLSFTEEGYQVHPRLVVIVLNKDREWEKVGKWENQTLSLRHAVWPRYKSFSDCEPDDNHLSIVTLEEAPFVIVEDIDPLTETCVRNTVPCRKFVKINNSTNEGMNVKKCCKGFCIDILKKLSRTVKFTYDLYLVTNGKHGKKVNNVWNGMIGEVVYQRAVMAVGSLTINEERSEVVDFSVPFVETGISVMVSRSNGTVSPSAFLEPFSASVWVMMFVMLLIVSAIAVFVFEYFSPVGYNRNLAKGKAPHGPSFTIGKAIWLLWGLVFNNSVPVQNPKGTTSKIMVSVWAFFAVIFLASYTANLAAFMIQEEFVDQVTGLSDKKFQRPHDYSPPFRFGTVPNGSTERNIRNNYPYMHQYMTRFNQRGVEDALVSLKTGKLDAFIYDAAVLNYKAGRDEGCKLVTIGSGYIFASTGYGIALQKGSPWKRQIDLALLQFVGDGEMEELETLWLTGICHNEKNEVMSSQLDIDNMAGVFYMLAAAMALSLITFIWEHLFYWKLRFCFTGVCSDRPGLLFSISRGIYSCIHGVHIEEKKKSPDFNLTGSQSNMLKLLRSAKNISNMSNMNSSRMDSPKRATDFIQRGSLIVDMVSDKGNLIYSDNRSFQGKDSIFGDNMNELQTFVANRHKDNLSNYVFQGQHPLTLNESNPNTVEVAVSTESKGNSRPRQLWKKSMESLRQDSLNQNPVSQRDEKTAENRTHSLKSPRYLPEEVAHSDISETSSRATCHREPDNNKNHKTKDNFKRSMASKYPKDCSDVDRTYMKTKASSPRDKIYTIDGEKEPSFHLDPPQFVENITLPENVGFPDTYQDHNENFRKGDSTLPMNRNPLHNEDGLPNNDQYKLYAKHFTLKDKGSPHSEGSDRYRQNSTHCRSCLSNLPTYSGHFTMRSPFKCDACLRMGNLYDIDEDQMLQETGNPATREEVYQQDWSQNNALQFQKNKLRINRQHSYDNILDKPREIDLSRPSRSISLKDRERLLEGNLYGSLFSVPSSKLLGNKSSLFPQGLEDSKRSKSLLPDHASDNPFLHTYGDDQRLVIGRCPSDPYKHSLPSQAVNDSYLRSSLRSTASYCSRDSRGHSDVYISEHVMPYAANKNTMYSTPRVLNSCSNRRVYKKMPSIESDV
T3 sequence (P41595 whole entry): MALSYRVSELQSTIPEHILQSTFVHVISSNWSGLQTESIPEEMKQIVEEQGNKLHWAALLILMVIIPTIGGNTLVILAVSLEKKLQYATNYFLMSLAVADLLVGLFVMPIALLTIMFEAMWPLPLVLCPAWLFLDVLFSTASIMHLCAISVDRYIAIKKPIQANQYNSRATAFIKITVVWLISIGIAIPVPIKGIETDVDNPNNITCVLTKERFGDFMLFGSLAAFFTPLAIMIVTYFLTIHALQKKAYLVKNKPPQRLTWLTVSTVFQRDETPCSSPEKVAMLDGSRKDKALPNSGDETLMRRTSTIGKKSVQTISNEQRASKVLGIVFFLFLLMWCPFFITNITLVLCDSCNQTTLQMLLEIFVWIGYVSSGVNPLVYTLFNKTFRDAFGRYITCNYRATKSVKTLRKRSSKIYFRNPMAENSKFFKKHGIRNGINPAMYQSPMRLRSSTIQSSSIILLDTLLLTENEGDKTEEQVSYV
T5 sequence (P25021 whole entry): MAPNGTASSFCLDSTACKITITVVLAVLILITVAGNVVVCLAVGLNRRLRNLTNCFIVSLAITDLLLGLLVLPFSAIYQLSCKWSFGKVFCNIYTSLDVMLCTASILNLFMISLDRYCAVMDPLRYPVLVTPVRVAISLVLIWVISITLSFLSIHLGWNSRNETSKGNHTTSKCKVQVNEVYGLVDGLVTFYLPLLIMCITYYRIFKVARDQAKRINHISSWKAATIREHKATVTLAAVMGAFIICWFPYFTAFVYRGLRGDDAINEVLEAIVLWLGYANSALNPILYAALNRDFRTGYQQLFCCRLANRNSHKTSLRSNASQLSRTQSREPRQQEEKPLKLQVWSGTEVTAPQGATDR

Compound `CC1(C)C(/C=C/C2=C(Oc3ccc(CCC(=O)NCCCC[C@@H]4NC(=O)[C@@H](Cc5ccc(O)cc5)NC(=O)[C@H](CC(=O)O)NC(=O)CNC(=O)[C@H](CCCNC(=N)N)NC4=O)cc3)C(=C/C=C3/N(CCC[N+](C)(C)C)c4ccc(S(=O)(=O)O)cc4C3(C)C)/CCC2)=[N+](CCC[N+](C)(C)C)c2ccc(S(=O)(=O)O)cc21` [cRGD-ZW800-1] has an inhibition at 10 µM [1, 17] of 5%, a remaining activity at 10 µM [1, 18] of 95.5% and an inhibition at 10 µM [2, 19] of -3%. The remaining activity at 10 µM [2, 20] was 103%, the inhibition at 10 µM [3, 21] was 29% and the remaining activity at 10 µM [3, 20] was 70.9%. The “% Inhibition of Control Specific Binding” value ([4]; 10 μM cRGD-ZW800-1, format An, performed twice) was 20%, the “% of Control Specific Binding Mean” value ([4]; 10 μM, mean of 2) was 79.9% and the “fluorescence intensity with increasing concentrations” value ([5]; 0, 125, 250, 500, 1000 nM, 1 h, Odyssey NIR scanner 800-nm channel, triplicate) was “almost linear increase”. The “fluorescence signals at 4°C compared to 37°C” value ([5]; incubated at 4°C, which prevents internalization, p < 0.0001) was “Significantly lower signals”, the inhibition at 10 µM [6, 19] was 3% and the remaining activity at 10 µM [6, 20] was 97.4%. The inhibition at 10 µM [7, 17] was -4%, the remaining activity at 10 µM [7, 18] was 104% and the “TBR at 4 h, control” value ([8]; 10 nmol cRGD-ZW800-1 alone, n = 3, healthy colon as background, mean ± SD) was 3.2 ± 0.5. The “TBR at 4 h, with unlabeled cRGD” value ([8]; 10 nmol cRGD-ZW800-1 co-injected with 2.0 μmol unlabeled cRGD (200-fold), n = 4, mean ± SD) was 1.8 ± 0.4, the inhibition at 10 µM [9, 21] was 10% and the remaining activity at 10 µM [9, 20] was 90.3%. For the same compound, the inhibition at 10 µM [10, 19] was -20%, the remaining activity at 10 µM [10, 20] was 120% and the “mean TBR” value [11] was 5.4 ± 1.1. It also gave an inhibition at 10 µM [12, 21] of -11%, a remaining activity at 10 µM [12, 20] of 111% and an inhibition at 10 µM [13, 22] of -12%. For the same compound, the remaining activity at 10 µM [13, 20] was 112%, the inhibition at 10 µM [14, 21] was 1% and the remaining activity at 10 µM [14, 20] was 98.6%. The inhibition at 10 µM [15, 22] was 62%, the remaining activity at 10 µM [15, 20] was 38% and the inhibition at 10 µM [16, 17] was 10%. It also gave a remaining activity at 10 µM [16, 18] of 90.4%.
